{
  "source": "paper PMC11775389",
  "about": "“Catalytic mechanism underlying the regiospecificity of coumarin-substrate transmembrane prenyltransferases in Apiaceae” (Plant and Cell Physiology, 2024)",
  "key": {"AgPT1": {"tested_on": "AgPT1", "settings": "read-out: apparent Km, divalent cation"}, "PsPT1": {"target": "T1, PsPT1 (Pastinaca sativa, UniProt A0A0U1ZEE9)", "T1 construct": "gene PT1; full CDS (with transit peptide) in pGWB502; transient expression in Nicotiana benthamiana leaves, microsomes", "assay": "UHPLC of prenylated product, microsomes", "type": "biochemical", "settings": "C6 product (demethylsuberosin); DMAPP co-substrate, Mg2+, 28 °C; read-out: Demethylsuberosin / (C6-position product) / Umbelliferone", "source_text": "(§1) UHPLC of prenylated product, microsomes on PsPT1"}, "[1]": {"tested_on": "CC(C)=CCOP(=O)(O)OP(=O)(O)O", "assay": "UHPLC of prenylated product, microsomes", "type": "biochemical, Pastinaca sativa", "settings": "C6 product (demethylsuberosin), umbelliferone co-substrate, Mg2+, 28 °C", "source_text": "as §1"}, "O=c1ccc2ccc(O)cc2o1": {"tested_on": "O=c1ccc2ccc(O)cc2o1", "assay": "UHPLC of prenylated product, microsomes", "type": "biochemical, Pastinaca sativa", "settings": "D2P8 (T/A), C6 product (demethylsuberosin), DMAPP co-substrate, Mg2+, 28 °C", "source_text": "as §1"}},
  "note": "Like-named read-outs stand apart in the source and are kept apart here.",
  "data": [
    {"molecule": "CC(C)=CCOP(=O)(O)OP(=O)(O)O", "note": "[DMAPP]", "values": [
      {"measurement": "Km", "setting": "AgPT1; umbelliferone co-substrate", "value": "10 ± 3", "unit": "µM"}
    ]},
    {"molecule": "O=c1ccc2ccc(O)cc2o1", "note": "[umbelliferone]", "values": [
      {"measurement": "Km", "setting": "PsPT1", "value": "2.7 ± 0.6", "unit": "µM"},
      {"measurement": "Km", "setting": "AgPT1; DMAPP co-substrate", "value": "40 ± 20", "unit": "µM"}
    ]},
    {"molecule": "PsPT1 (Pastinaca sativa)", "values": [
      {"measurement": "Km", "setting": "[1]", "value": "5 ± 1", "unit": "µM"}
    ]},
    {"molecule": "PsPT1 (Pastinaca sativa; T161A)", "values": [
      {"measurement": "Km", "setting": "[1]; D2P8 (T/A)", "value": "4.4 ± 0.8", "unit": "µM"},
      {"measurement": "Km", "setting": "O=c1ccc2ccc(O)cc2o1", "value": "47 ± 7", "unit": "µM"}
    ]}
  ]
}
